From paper PMC11249776, “Synthesis of Structural ADP-Ribose Analogues as Inhibitors for SARS-CoV-2 Macrodomain 1” (Organic Letters, 2024)

Molecular target: T1, SARS-CoV-2 NSP3 macrodomain (Severe acute respiratory syndrome coronavirus 2, UniProt P0DTD1)
T1 construct: SARS-CoV-2 NSP3 macrodomain
Test: Mac1 HTRF assay (displacement of ADP-ribose conjugated biotin peptide)
Assay type: binding
Settings: for Mac1 inhibition / affinity in words: qualitative statement

Row | SMILES | IC50 | Mac1 inhibition / affinity in words
1 | C#CC1OC(COP(=O)(O)OP(=O)(O)OCC2OC(n3cnc4c(N)ncnc43)C(O)C2O)C(O)C1O (stereo not shown) [Compound 5] | 2400 ± 200 nM | 
2 | COC1OC(COP(=O)(O)OP(=O)(O)OCC2OC(n3cnc4c(N)ncnc43)C(O)C2O)C(O)C1OCc1ccccc1 (stereo not shown) [Compound 6] | > 200000 nM | poor affinity
3 | [N-]=[N+]=NC1OC(COP(=O)(O)OP(=O)(O)OCC2OC(n3cnc4c(N)ncnc43)C(O)C2O)C(O)C1OCc1ccccc1 (stereo not shown) [Compound 7] | 80000 ± 1700 nM | poor affinity
4 | COC1OC(COP(=O)(O)OP(=O)(O)OCC2OC(n3cnc4c(N)ncnc43)C(O)C2O)C(F)C1O (stereo not shown) [Compound 8] | > 200000 nM | drastically diminished binding affinity
5 | CON=C1C(COP(=O)(O)OP(=O)(O)OCC2OC(n3cnc4c(N)ncnc43)C(O)C2O)OC(OC)C1O (stereo not shown) [Compound 9] | > 200000 nM | 
6 | CO[C@H]1O[C@H](COP(=O)(O)OP(=O)(O)OC[C@H]2O[C@@](C#N)(c3ccc4c(N)ncnn34)[C@H](O)[C@@H]2O)[C@@H](O)[C@H]1O [Compound 10, α-O-methyl-NDPr] | 63 ± 5 nM | 
7 | N#C[C@@]1(c2ccc3c(N)ncnn23)O[C@H](COP(=O)(O)OP(=O)(O)OC[C@H]2O[C@H](N=[N+]=[N-])[C@H](O)[C@@H]2O)[C@@H](O)[C@H]1O [Compound 11, α-N3-NDPr] | 30 ± 1.5 nM | 
